The results in this text go back to patent publication EP4813992A1, “POLYARYL DERIVATIVE AND USE THEREOF” (Hangzhou HealZen Therapeutics Co., Ltd., priority 2023, dated 2025).

A short description of series [1]: Pharmacokinetic properties in SD rats after gavage. It is filed as in vivo. As to conditions: rat, po, 10 mg/kg, plasma. How it is done: The test compound is administered to SD rats by gavage at a dose of 10 mg/kg. Blood samples are collected at 0 h (before administration) and at 0.083, 0.25, 1, 2, 4, 6, 8, and 24 h after oral gavage administration. The samples are placed in anticoagulant tubes containing heparin sodium, and the mixture is thoroughly vortexed and centrifuged at 6000 rpm for 3 minutes. Plasma concentrations are determined by LC-MS/MS, and relevant pharmacokinetic parameters are calculated using Phoenix WinNonlin 8.2.0 pharmacokinetic software. Table 4 Pharmacokinetic properties of the compounds of the invention

Series [2] has as its target T1, HPK1 kinase (Homo sapiens, UniProt Q92918). The series can be described thus: Lantha screen assay, inhibitory effect on HPK1 kinase. The class given is biochemical. As to conditions: initial compound concentration 1 µM. The essentials:
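Kinase pre-incubated with compound for 10 min at room temperature in 50 mM HEPES pH 7.5, 10 mM MgCl2, 4 mM DTT, 0.01% Tween-20, 0.01% BSA. Fluorescein-PKC substrate plus ATP then added for 90 min, stopped with antibody/EDTA for 60 min. Top concentration 1 µM; IC50 from four-parameter fit of inhibition vs log concentration.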

For a further series, the system named is HPK1/GLK. The series can be described thus: Selectivity of degrading HPK1/GLK in Jurkat cells (Western blot, 24 h). The class given is cell-based. The settings on record: HPK1/GLK Fold = DC50 (HPK1) / DC50 (GLK). The protocol: • 1) Cell plating: Cells are resuscitated, Jurkat cell lines in good growth condition are selected, and cells in the logarithmic growth phase are collected and counted; cell suspensions are seeded into 12 or 24-well plates (20W/well) and incubated overnight at 37°C in a 5% CO2 incubator. • 2) Preparation of compounds to be tested: The compounds to be tested are serially diluted with DMSO according to the experimental requirements and added to the corresponding cell wells, to be incubated at 37°C in a 5% CO2 incubator for 24 h. • 3) Preparation of samples: After the reaction of the compound to be tested is completed, the cells are collected in 1.5 mL EP tubes, and centrifuged at 1500 rpm for 5 min; after the supernatant is discarded, the cells are washed once with PBS, and the BCA protein is quantified and the concentration is adjusted. The adjusted samples are added to 5*loading buffer, boiled at 100°C for 10 minutes, and then the samples are loaded after the temperature is returned to room temperature. • 4) Detection of samples: Electrophoresis is performed using 10% SDS-PAGE with a sample loading volume of 10 µL/well. After the membrane transfer is completed, the samples are blocked with 5% skim milk at room temperature for 1 h. After the residual blocking solution is washed away with TBST, HPK1 and GLK antibodies are added for incubation overnight at 4°C. Washing is performed 3 more times with TBST on a shaker, 5 minutes each time. After washing is completed, the secondary antibody is added for incubation at room temperature in a shaker for 1 hour; then, washing is performed 3 more times with TBST on a shaker, 5 minutes each time; finally, the membrane is soaked in TBST and then subjected to chemiluminescence development. • 5) Data Processing: After the PVDF membrane is developed, the data are exported and plotted using Imang J, and the gray values of the protein bands are analyzed using Image J software; the DC50 curve is fitted using Graphpad Prism 9 software to obtain the results of the selectivity of the compound in degrading HPK1/GLK: HPK1/GLK Fold = DC50 (HPK1) / DC50 (GLK) . Table 3 Selectivity of the compounds of the invention in degrading HPK1/GLK

Series [3] addresses T1, HPK1 kinase. The series can be described thus: Activity of degrading HPK1 in Jurkat cells (Western blot, 24 h). The settings on record: HPK1 protein degradation, class symbols. Set-up: endogenous in cells; host or cells: Jurkat. The class given is cell-based. How it is done: The adjusted samples are added to 5*loading buffer, boiled at 100°C for 10 minutes, and then the samples are loaded after the temperature is returned to room temperature. • 4) Detection of samples: Electrophoresis is performed using 10% SDS-PAGE with a sample loading volume of 8 µL/well. After the membrane transfer is completed, the samples are blocked with 5% BSA at room temperature for 1 h. After the residual blocking solution is washed away with TBST, HPK1 and GAPDH antibodies are added for incubation overnight at 4°C. Washing is performed 3 more times with TBST on a shaker, 10 minutes each time. After washing is completed, the secondary antibody is added for incubation at room temperature for 1 hour; then, washing is performed 3 more times with TBST on a shaker, 10 minutes each time; finally, ECL exposure solution is used to develop and image the bands to detect changes in HPK1 protein.

T1 sequence (Q92918 whole entry): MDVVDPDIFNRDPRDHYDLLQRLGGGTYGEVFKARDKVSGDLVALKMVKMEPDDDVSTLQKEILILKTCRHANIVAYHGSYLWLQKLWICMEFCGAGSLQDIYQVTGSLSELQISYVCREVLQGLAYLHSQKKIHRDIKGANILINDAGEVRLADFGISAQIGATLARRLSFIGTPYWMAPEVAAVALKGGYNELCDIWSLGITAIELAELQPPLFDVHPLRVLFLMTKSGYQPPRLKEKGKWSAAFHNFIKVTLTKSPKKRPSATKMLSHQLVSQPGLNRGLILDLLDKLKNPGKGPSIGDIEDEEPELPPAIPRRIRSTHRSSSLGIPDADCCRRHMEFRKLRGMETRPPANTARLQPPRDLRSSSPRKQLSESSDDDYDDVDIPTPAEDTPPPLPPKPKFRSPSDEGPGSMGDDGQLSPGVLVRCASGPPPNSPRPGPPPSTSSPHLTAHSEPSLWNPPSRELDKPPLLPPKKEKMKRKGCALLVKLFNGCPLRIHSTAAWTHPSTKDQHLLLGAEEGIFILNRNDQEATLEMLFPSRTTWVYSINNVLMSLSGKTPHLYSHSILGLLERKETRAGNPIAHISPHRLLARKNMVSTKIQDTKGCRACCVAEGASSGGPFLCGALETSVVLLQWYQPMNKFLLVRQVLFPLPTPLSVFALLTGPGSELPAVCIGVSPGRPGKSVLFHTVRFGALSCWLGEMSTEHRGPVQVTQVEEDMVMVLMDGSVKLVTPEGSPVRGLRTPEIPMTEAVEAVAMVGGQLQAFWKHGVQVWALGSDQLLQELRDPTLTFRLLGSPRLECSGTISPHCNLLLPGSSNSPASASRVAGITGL

Molecule `Cc1cc(-c2cnc3[nH]cc(-c4ccc(C(=O)N(C)C)cc4)c3n2)cc(C)c1C1=CCN(CC2CN(c3ccc(N4CCC(=O)NC4=O)c(F)c3)C2)CC1` [compound 049] registered an AUC in series [1] of 9570 ng·h/mL. Further, the IC50 against HPK1 kinase [2] is under 10 nM. Besides, the “HPK1/GLK Fold” value in the series on HPK1/GLK is listed as “++++ (1000≤Fold)”. The molecule also returned a DC50 at HPK1 kinase [3] of under 10 nM.
Take `Cc1cc(-c2cnc3[nH]cc(-c4ccc(C(=O)N(C)C)cc4)c3c2)cc(C)c1C1=CCN(CC2CN(c3ccc(N4CCC(=O)NC4=O)c(F)c3)C2)CC1` [compound 144]: in series [1], the AUC was 5750 ng·h/mL. For the same molecule, the IC50 against HPK1 kinase [2] is under 10 nM. The “HPK1/GLK Fold” value in the series on HPK1/GLK was “++++ (1000≤Fold)”. The DC50 at HPK1 kinase [3] was under 10 nM.
`COc1cc(-c2cnc3[nH]cc(-c4ccc(C(=O)N(C)C)cc4)c3n2)ccc1C1=CCN(CC2CN(c3ccc(N4CCC(=O)NC4=O)c(C)c3)C2)CC1` [compound 135]: in series [1], the AUC is 5480 ng·h/mL. The molecule further had an IC50 against HPK1 kinase [2] of under 10 nM. The “HPK1/GLK Fold” value in the series with HPK1/GLK is “++++ (1000≤Fold)”. The molecule also gave a DC50 on HPK1 kinase [3] of under 10 nM.
Regarding `Cc1cc(-c2c[nH]c3ncc(-c4cc(C)c(C5=CCN(CC6CN(c7ccc(N8CCC(=O)NC8=O)c(F)c7)C6)CC5)c(C)c4)nc23)c(C)s1` [compound 150], the AUC in series [1] was found to be 13100 ng·h/mL. Besides, the IC50 at HPK1 kinase [2] was under 10 nM. The “HPK1/GLK Fold” value with HPK1/GLK was “++++ (1000≤Fold)”. The DC50 on HPK1 kinase [3] is under 10 nM.
In turn, `Cc1cc(N2CC(CN3CC=C(c4c(C)cc(-c5cnc6[nH]cc(-c7ccc(C(=O)N(C)C)cc7)c6n5)cc4C)CC3)C2)ccc1N1CCC(=O)NC1=O` [compound 014] came in with an AUC in series [1] of 11400 ng·h/mL. The same molecule had an IC50 on HPK1 kinase [2] of under 10 nM. The “HPK1/GLK Fold” value with HPK1/GLK is recorded as “++++ (1000≤Fold)”. The DC50 at HPK1 kinase [3] was under 10 nM.
For the molecule `Cc1cc(-c2cnc3[nH]cc(-c4ccc(C(=O)N(C)C)cc4)c3n2)cc(C)c1C1=CCN(CC2CN(c3ccc(C(=O)NC4CCC(=O)NC4=O)nc3)C2)CC1` (stereo not drawn) [compound 016], in series [1], the AUC is 5000 ng·h/mL. At HPK1 kinase [2], this molecule returned an IC50 of under 10 nM. For the same molecule, the “HPK1/GLK Fold” value with HPK1/GLK is given as “++++ (1000≤Fold)”. This molecule had a DC50 at HPK1 kinase [3] of under 10 nM.
Consider `Cc1cc(-c2cnc3[nH]cc(-c4ccc(C(=O)N(C)C)cc4)c3n2)cc(C)c1C1=CCN(CC2CN(c3ccc(NC4CCC(=O)NC4=O)cc3F)C2)CC1` (stereo not drawn) [compound 052], for which the AUC in series [1] stood at 6300 ng·h/mL. Besides, the “HPK1/GLK Fold” value in the series on HPK1/GLK is “++++ (1000≤Fold)”. Also, the half-maximal degradation concentration (DC50) at HPK1 kinase [3] is under 10 nM.
Regarding `Cc1cc(-c2cnc3[nH]cc(-c4cnn5c4CCC5)c3n2)cc(C)c1C1=CCN(CC2CN(c3ccc(N4CCC(=O)NC4=O)c(F)c3)C2)CC1` [compound 170], the AUC in series [1] was determined as 12700 ng·h/mL. Besides, the IC50 on HPK1 kinase [2] is under 10 nM. For the same molecule, in the series on HPK1/GLK, the “HPK1/GLK Fold” value was “++++ (1000≤Fold)”. Moreover, the DC50 at HPK1 kinase [3] is under 10 nM.
In series [1], `Cc1cc(-c2cnc3[nH]cc(-c4ccc(C(=O)N(C)C)cc4)c3n2)cc(C)c1C1=CCN(C2CN(c3ccc(C(=O)NC4CCC(=O)NC4=O)cn3)C2)CC1` (stereo not drawn) [compound 011] came in with an AUC of 8990 ng·h/mL. This molecule also gave an IC50 on HPK1 kinase [2] of under 10 nM. Also, in the series on HPK1/GLK, the “HPK1/GLK Fold” value is given as “++++ (1000≤Fold)”.
In series [1], `Cc1cc(-c2cnc3[nH]cc(-c4ccc(C(=O)N(C)C)cc4)c3n2)cc(C)c1C1=CCN(CC2CN(c3cnn(C4CCC(=O)NC4=O)c(=O)c3)C2)CC1` (stereo not drawn) [compound 085] had an AUC of 8530 ng·h/mL. In addition, the IC50 at HPK1 kinase [2] is under 10 nM. Moreover, the “HPK1/GLK Fold” value with HPK1/GLK is reported as “++++ (1000≤Fold)”. On HPK1 kinase [3], this molecule showed a DC50 of under 10 nM.
As for `Cc1cc(-c2cnc3[nH]cc(-c4cncc5c4ncn5C)c3n2)cc(C)c1C1=CCN(CC2CN(c3cc(F)c(C4CCC(=O)NC4=O)c(F)c3)C2)CC1` (stereo not drawn) [compound 057], in series [1], the AUC stood at 11300 ng·h/mL. In addition, the IC50 against HPK1 kinase [2] was under 10 nM. The “HPK1/GLK Fold” value in the series with HPK1/GLK is “++++ (1000≤Fold)”.
Regarding `Cc1cc(-c2cnc3[nH]cc(-c4ccc(C(=O)N(C)C)cc4)c3n2)cc(C)c1C1=CCN(CC#Cc2cccc3c(C4CCC(=O)NC4=O)coc23)CC1` (stereo not drawn) [compound 024], the AUC in series [1] worked out at 12000 ng·h/mL. This molecule gave an IC50 against HPK1 kinase [2] of under 10 nM. In addition, the “HPK1/GLK Fold” value in the series with HPK1/GLK was “++++ (1000≤Fold)”. Moreover, on HPK1 kinase [3], the DC50 is under 10 nM.
Consider `Cc1cc(-c2cnc3[nH]cc(-c4ccc(C(=O)N(C)C)cc4)c3n2)cc(C)c1C1=CCN(CC2CN(c3cc4c(cc3F)c(N3CCC(=O)NC3=O)nn4C)C2)CC1` [compound 062], for which the AUC in series [1] worked out at 9920 ng·h/mL. In addition, on HPK1 kinase [2], the IC50 was under 10 nM. The “HPK1/GLK Fold” value with HPK1/GLK is given as “++++ (1000≤Fold)”.

The term AUC denotes concentration integrated over time. High values mean more exposure, low ones less exposure. Usually IC50 stands for the point on the concentration scale where inhibition reaches its midpoint. For orientation: DC50 means the concentration giving 50% degradation. Low values mean a more potent degrader, high ones a less potent degrader.
